Data set [1] has as its target T1, heart muscarine receptors (Cavia porcellus, UniProt H0VRN8).
T1 construct: The heart was removed to make a preparation of atrium of heart; from tissue; host or cells: isolated atrium of Hartley male guinea pig
T1 sequence (H0VRN8 1-466): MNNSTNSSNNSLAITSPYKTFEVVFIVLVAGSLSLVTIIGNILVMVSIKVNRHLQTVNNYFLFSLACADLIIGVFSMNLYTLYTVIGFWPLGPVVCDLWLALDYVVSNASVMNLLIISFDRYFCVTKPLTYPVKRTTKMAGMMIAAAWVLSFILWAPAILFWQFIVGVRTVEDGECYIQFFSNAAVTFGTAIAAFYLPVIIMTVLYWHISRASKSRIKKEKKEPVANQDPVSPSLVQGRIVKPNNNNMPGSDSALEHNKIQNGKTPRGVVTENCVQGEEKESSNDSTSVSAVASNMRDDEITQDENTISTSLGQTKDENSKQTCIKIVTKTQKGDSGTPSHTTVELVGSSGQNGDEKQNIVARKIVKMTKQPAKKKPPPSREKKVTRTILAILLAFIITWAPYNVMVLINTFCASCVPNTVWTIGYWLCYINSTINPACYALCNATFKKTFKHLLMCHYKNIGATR
As to the kind of experiment: Antagonism action on the acetylcholine-induced negative chronotropic action of atrium of heart (in vitro test). The note with it: guinea pig atrium of heart, Schild plot, acetylcholine 10^-9 M~3×10^-6 M, 32° C., read-out: pA2 Atrium (converted). The procedure:
3. Antagonism action on the acetylcholine-induced negative chronotropic action of atrium of heart (in vitro test)
Hartley male guinea pig was killed by stunning and bleeding. The heart was removed to make a preparation of atrium of heart. The preparation was mounted in a 10 ml organ bath filled with Krebs-Henseleit solution of 32° C. that was bubbled with 95% O2 /5% CO2. The initial resting tension was made to be 0.5 g and measurement of isometric muscle tension was recorded.
(§1) The action of testing drug is shown in terms of pA2 determined from Schild plot of the extent of right shift of the concentration-response curve on 10^-9 M~3×10^-6 M of acetylcholine.

Data set [2] concerns pupil. As to the kind of experiment: Diameter of pupil in the restraint stress model (in vivo test). More on the design: species or system rat. The note with it: Wistar male rats, 10 mg/kg orally. The method, then: (§2) 4. Inhibitory effect in the defecation model under restraint stress (in vivo test)
(§3) Wistar strain male rats were employed. Testing drug was administered orally at 10 mg/kg and, after 30 minutes, the restraint stress was given by fixing the forefeet of rat on back side under anesthetization with ether. Moreover, the diameter of pupil (mm) was also measured.
(§4) After allowed to stand for 1 hour in separate cage, the defecation level and diameter of pupil were measured.

In data set [3] the test system is defecation model under restraint stress. Briefly: Inhibitory effect in the defecation model under restraint stress (in vivo test). The note with it: Wistar male rats; 10 mg/kg orally, restraint stress 30 minutes later; defecation measured after 1 hour. Set-up: species or system rat. The method, then:
as §2, §3, §4
The inhibitory rate of defecation was determined from following formula.

Data set [4] deals with T2, sphincter muscle of the pupil (Oryctolagus cuniculus, UniProt G1U308).
T2 construct: The eyeball was removed to make a preparation of sphincter muscle of the pupil; from tissue; host or cells: isolated pupillary sphincter muscle of Japanese white male rabbit
T2 sequence (G1U308 entry or part of it): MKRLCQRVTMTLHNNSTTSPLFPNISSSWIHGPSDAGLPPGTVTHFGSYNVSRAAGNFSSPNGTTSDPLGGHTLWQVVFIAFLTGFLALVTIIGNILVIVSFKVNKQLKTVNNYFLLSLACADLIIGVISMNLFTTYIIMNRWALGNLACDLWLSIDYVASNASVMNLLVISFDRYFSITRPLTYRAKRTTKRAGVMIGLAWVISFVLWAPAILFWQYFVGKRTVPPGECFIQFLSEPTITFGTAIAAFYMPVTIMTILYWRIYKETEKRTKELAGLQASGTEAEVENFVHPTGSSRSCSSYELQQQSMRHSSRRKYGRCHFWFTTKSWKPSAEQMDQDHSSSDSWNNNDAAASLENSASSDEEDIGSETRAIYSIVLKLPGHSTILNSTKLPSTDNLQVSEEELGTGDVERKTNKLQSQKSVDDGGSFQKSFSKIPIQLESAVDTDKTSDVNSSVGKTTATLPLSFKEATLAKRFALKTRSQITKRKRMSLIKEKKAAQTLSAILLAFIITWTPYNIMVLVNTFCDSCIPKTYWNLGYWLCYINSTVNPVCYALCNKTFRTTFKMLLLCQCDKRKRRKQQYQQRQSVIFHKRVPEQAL
Briefly: Antagonism on the acetylcholine-induced contraction of pupil (in vitro test). Conditions: rabbit sphincter muscle of the pupil, Schild plot, acetylcholine 10^-6 M~10^-2 M, 30° C., read-out: pA2 Pupil (converted). The method, then:
2. Antagonism on the acetylcholine-induced contraction of pupil (in vitro test)
Japanese white male rabbit was anesthetized using sodium pentobarbital and killed by bleeding. The eyeball was removed to make a preparation of sphincter muscle of the pupil. The preparation was mounted in a 10 ml organ bath filled with Krebs solution of 30° C. that was bubbled with 95% O2 /5% CO2. The initial resting tension of 0.2 g was applied to the preparation and measurement of isometric muscle tension was recorded.
The action of testing drug is shown in terms of pA2 determined from Schild plot of the extent of right shift of the concentration-response curve on 10^-6 M~10^-2 M of acetylcholine.

Data set [5] deals with T3, ileum muscarine receptors (Cavia porcellus, UniProt H0W1Z3).
T3 construct: The ileum was removed to make a 1.5 to 2 cm preparation; from tissue; host or cells: isolated ileum of Hartley male guinea pig
T3 sequence (H0W1Z3 1-590): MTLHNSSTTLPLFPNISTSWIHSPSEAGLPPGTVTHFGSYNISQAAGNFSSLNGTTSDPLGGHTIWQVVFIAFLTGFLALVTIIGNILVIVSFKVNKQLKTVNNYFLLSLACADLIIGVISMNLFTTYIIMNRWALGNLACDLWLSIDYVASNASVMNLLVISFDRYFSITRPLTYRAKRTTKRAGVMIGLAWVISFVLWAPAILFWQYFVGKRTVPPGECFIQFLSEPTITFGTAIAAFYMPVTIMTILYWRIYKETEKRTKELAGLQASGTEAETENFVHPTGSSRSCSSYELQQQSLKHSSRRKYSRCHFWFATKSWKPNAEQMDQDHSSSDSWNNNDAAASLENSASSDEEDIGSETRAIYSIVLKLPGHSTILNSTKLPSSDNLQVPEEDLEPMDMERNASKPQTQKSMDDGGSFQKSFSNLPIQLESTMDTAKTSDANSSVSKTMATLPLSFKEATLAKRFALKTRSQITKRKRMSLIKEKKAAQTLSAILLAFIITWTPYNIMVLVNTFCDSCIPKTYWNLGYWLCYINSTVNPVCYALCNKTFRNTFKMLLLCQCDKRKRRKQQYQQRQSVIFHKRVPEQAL
Briefly: Antagonism on the acetylcholine-induced contraction of ileum (in vitro test). The note with it: guinea pig ileum, Schild plot, acetylcholine 10^-9 M~3×10^-6 M, 28° C., read-out: pA2 Ileum (converted). The method, then:
1. Antagonism on the acetylcholine-induced contraction of ileum (in vitro test)
Hartley male guinea pig was killed by stunning and bleeding. The ileum was removed to make a 1.5 to 2 cm preparation. The preparation was mounted in a 10 ml organ bath filled with Tyrode's solution of 28° C. that was bubbled with 95% O2 /5% CO2. The initial resting tension of 1 g was applied to the preparation and measurement of isomeric muscle tension was recorded.
as §1

`NC(=O)C(CCN1CCC(OCc2cccc(Cl)c2)C1)(c1ccccc1)c1ccccc1` (stereo not drawn) [Example 9, 4-[3-(3-chlorobenzyloxy)pyrrolidine-1-yl]-2,2-diphenylbutaneamide]: the Kb in data set [1] was 0.631 µM; in data set [4] it was 0.0501 µM; in data set [5], 0.0251 µM. In addition, the “Diameter of pupil (mm), Immediately after restraint” value in data set [2] (Control 0.44) stood at 0.43 mm. Further, the “Diameter of pupil (mm), After restraint” value in data set [2] (after 1 hour, Control 0.48) is reported as 0.45 mm. In data set [3], the “Inhibitory rate of defecation (%)” value is 48.9%.

These data come from patent US6071950A, “N-substituted pyrrolidine derivatives and process for preparing the same” (Kyorin Pharmaceutical Co., Ltd., priority 1996, dated 2000).
